Laboratory results from US20090149452A1, “XANTHINE OXIDASE INHIBITOR” (NIPPON CHEMIPHAR CO., LTD., priority 2005, published 2009).

Columns and labels:
[1] = molecular target: T1, Cow milk Xanthine Oxidase (Bos taurus, UniProt P80457); test: In vitro xanthine oxidase inhibition (oxidation of xanthine, absorbance at OD 290 nm); format: biochemical; conditions: xanthine 250 μM, 50 mM phosphate buffer pH 7.5, 30° C. 10 minutes
T1 construct: Cow milk Xanthine Oxidase (Roche); purchased Roche; host or cells: cow milk
Procedure: The xanthine oxidase inhibiting action (in vitro test) of the compound of the invention was confirmed by measuring inhibition of oxidation of xanthine by xanthine oxidase, as described in Example 26. As is clear from Tables 11 and 12, the compounds of the invention show excellent xanthine oxidase inhibiting action.
The test compound was dissolved in dimethylsulfoxide and diluted with 50 mM phosphate buffer (pH 7.5), to give a solution of a predetermined concentration.
125 μL of each of the solutions of the test compound having different concentrations was added to 1 mL of a solution of Xanthine (SIGMA, 250 μM) in the 50 mM phosphor buffer (pH 7.5). The mixture was then pre-incubated at 30° C. for 5 min. Subsequently, to the pre-incubated mixture was added 125 μL of Cow milk Xanthine Oxidase (Roche) diluted with the 50 mM phosphate buffer (pH 7.5) to 70 mU/mL, and the mixture was subjected to reaction at 30° C. for 10 minutes. Then, 1N hydrochloric acid (200 μL) was added to the reaction mixture to terminate the reaction. Subsequently, absorbance at OD 290 nm was measured by means of a spectrophotometer (Shimadzu UV-160A), to obtain a inhibition ratio. The measured inhibition ration was used to obtain IC50.
The inhibition ratio was calculated according to the following formula:
Inhibition ratio (%)=[1−(B−C)/(A−C)]×100 • A: absorbance of control • B: absorbance measured on a sample containing test compound • C: absorbance of blank

[2] = system: in-plasma uric acid value; test: In vivo test: in-plasma uric acid value-inhibition ratio after single oral administration to mouse; conditions: in-plasma uric acid inhibition ratio as activity value relative to TMX-67 (0.3 mg/kg); unfasted ICR mouse, single oral 0.3 mg/kg or 3 mg/kg, blood one hour after administration
Procedure: The xanthine oxidase inhibiting action was further confirmed in viva tests by measuring the uric acid concentration in a plasma obtained from mouse into which the compound of the invention had been orally administered. See Example 27 and Tables 11 and 12. The test compound suspended in 1% methylcellulose solution in an amount of 0.3 mg/kg or 3 mg/kg was administered to unfasted ICR mouse (7 W) by forced single oral administration. The blood was collected from main artery from the mouse under etherization after one hour from the administration. The plasma was separated from the collected blood in the conventional manner. The plasma was then subjected to measurement of uric acid value by the enzyme method by means of an automatic analytical apparatus ([…]), to obtain an in-plasma uric acid value-inhibition ratio in the test sample-administered group as compared with a ratio obtained in the normal group. Based on the obtained in-plasma uric acid inhibition ratio, activity values (%) relative to activity values obtained in the simultaneously conducted tests using TMX-67 (0.3 mg/kg).

T1 sequence (P80457 whole entry): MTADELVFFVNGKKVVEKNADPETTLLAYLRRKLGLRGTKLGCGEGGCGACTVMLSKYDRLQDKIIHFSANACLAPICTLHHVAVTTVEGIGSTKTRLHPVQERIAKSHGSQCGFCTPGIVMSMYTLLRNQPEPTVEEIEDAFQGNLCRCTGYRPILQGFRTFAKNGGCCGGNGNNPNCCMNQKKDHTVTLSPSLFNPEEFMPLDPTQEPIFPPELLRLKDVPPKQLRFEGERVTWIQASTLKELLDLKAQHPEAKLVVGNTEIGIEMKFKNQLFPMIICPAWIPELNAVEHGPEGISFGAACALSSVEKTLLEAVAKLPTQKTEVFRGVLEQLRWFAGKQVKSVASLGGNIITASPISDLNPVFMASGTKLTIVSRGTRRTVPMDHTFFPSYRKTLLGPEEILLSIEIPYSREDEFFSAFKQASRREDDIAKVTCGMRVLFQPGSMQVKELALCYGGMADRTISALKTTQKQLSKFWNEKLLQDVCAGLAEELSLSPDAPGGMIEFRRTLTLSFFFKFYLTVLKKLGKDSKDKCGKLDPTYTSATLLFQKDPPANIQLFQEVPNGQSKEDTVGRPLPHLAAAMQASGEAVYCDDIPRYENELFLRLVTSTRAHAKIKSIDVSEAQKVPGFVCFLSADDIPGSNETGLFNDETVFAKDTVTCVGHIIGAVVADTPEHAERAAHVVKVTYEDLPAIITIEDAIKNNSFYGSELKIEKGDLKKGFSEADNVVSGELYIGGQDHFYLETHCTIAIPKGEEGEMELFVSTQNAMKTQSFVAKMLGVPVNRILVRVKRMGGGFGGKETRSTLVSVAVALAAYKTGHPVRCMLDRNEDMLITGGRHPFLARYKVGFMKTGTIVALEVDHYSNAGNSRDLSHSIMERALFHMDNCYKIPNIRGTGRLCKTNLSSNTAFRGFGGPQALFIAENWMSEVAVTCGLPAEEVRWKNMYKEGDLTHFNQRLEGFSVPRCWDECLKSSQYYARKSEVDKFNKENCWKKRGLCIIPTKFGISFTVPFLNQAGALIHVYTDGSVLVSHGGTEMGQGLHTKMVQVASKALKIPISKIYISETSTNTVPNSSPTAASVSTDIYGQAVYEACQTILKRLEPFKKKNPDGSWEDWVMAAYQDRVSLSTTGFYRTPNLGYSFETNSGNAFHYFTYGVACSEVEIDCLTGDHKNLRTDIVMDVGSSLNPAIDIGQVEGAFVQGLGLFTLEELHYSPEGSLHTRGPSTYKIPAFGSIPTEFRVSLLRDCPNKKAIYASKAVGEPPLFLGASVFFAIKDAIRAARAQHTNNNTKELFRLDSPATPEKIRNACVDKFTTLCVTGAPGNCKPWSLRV

IC50 [1] [µM]	melting point	Structure (SMILES)	In Vivo (%) TMX-67 (0.3 mg/kg) [2] [%]
0.058	256 to 259 °C (dec.)	N#Cc1cc(-c2nc3cncnc3s2)ccc1Oc1ccccc1N [Example 20, 2-[4-(2-Aminophenoxy)-3-cyanophenyl]thiazolo[5,4-d]-pyrimidine]	–
–	170 to 175 °C (dec.)	N#Cc1cc(-c2nc3cncnc3s2)ccc1N1CCSCC1 [Example 16, 2-[3-Cyano-4-(thiomorpholin-4-yl)phenyl]-thiazolo[5,4-d]pyrimidine]	34
–	171 to 173 °C	N#Cc1cc(-c2nc3cncnc3s2)ccc1Oc1cccc(Cl)c1 [Example 15, 2-[4-(3-Chlorophenyloxy)-3-cyanophenyl]-thiazolo[5,4-d]pyrimidine]	87
–	232 to 234 °C (dec.)	N#Cc1cc(-c2nc3cncnc3s2)ccc1N1CCOCC1 [Example 13, 2-(3-Cyano-4-morpholin-4-ylphenyl)thiazolo-[5,4-d]pyrimidine]	40
–	–	N#Cc1cc(-c2nc3cncnc3o2)ccc1Oc1ccc(F)cc1 [Example 18, 2-[3-Cyano-4-(4-fluorophenoxy)phenyl]oxazolo[5,4-d]-pyrimidine]	71
0.389	189 to 190 °C	N#Cc1cc(-c2nc3cncnc3s2)ccc1Oc1cccc(F)c1 [Example 6, 2-[3-Cyano-4-(3-fluorophenoxy)phenyl]-thiazolo[5,4-d]pyrimidine]	127
0.28	175 to 177 °C	N#Cc1cc(-c2nc3cncnc3s2)ccc1Oc1ccc(F)cc1 [Example 1, 2-[4-(4-fluorophenoxy)-3-cyanophenyl]thiazolo[5,4-d]pyrimidine]	132
–	209 to 211 °C	N#Cc1cc(-c2nc3cncnc3s2)ccc1Oc1ccccc1Cl [Example 17, 2-[4-(2-Chlorophenyloxy)-3-cyanophenyl]thiazolo[5,4-d]pyrimidine]	86
–	189 to 190 °C	N#Cc1cc(-c2nc3cncnc3s2)ccc1Sc1cccc(F)c1 [Example 19, 2-[3-Cyano-4-(3-fluorophenylthio)phenyl]-thiazolo[5,4-d]pyrimidine]	171
0.139	154 to 156 °C	N#Cc1cc(-c2nc3cncnc3s2)ccc1Oc1ccccc1 [Example 2, 2-[3-Cyano-4-phenoxyphenyl)thiazolo[5,4-d]-pyrimidine]	114
0.298	179 to 180 °C	N#Cc1cc(-c2nc3cncnc3s2)ccc1Oc1ccc(Cl)cc1 [Example 9, 2-[4-(4-Chlorophenyloxy)-3-cyanophenyl]-thiazolo[5,4-d]pyrimidine]	120
0.273	210 to 212 °C	N#Cc1cc(-c2nc3cncnc3s2)ccc1Oc1cccnc1 [Example 3, 2-[3-Cyano-4-(3-pyridyloxy)phenyl]thiazolo-[5,4-d]pyrimidine]	90
0.196	173 to 176 °C	N#Cc1cc(-c2nc3cncnc3s2)ccc1Sc1ccccc1 [Example 11, 2-(3-Cyano-4-phenylthiophenyl)thiazolo[5,4-d]pyrimidine]	110
0.127	178 to 180 °C	N#Cc1cc(-c2nc3cncnc3s2)ccc1Sc1ccccc1F [Example 10, 2-[3-Cyano-4-(2-fluorophenylthio)phenyl]-thiazolo[5,4-d]pyrimidine]	115
0.31	202.6 to 207.6 °C	C=CCOc1ccc(-c2nc3cncnc3s2)cc1C#N [Example 12, 2-(4-Allyloxy-3-cyanophenyl)thiazolo[5,4-d]-pyrimidine]	52
–	204 to 206 °C	Cl.N#Cc1cc(-c2nc3cncnc3s2)ccc1Oc1cccnc1 [Example 21, 2-[3-Cyano-4-(3-pyridyloxy)phenyl]thiazolo-[5,4-d]pyrimidine hydrochloride]	68
0.103	195 to 196 °C	N#Cc1cc(-c2nc3cncnc3s2)ccc1Oc1ccccc1F [Example 5, 2-[3-Cyano-4-(2-fluorophenoxy)phenyl]-thiazolo[5,4-d]pyrimidine]	141
0.103	255 to 256 °C	N#Cc1cc(-c2nc3cncnc3s2)ccc1Oc1ccccc1O [Example 8, 2-[3-Cyano-4-(2-hydroxyphenoxy)phenyl]thiazolo[5,4-d]pyrimidine]	52
0.239	190 to 195 °C	N#Cc1cc(-c2nc3cncnc3s2)ccc1Sc1ccc(F)cc1 [Example 7, 2-[3-Cyano-4-(4-fluorophenylthio)phenyl]-thiazolo[5,4-d]pyrimidine]	109
–	–	N#Cc1cc(-c2nc3cncnc3s2)ccc1Oc1ccc(O)cc1.[K] [Example 25, 2-[3-Cyano-4-(4-hydroxyphenoxy)phenyl]thiazolo[5,4-d]pyrimidine potassium salt]	35
0.033	> 250 °C	N#Cc1cc(-c2nc3cncnc3[nH]2)ccc1Oc1ccc(F)cc1 [Example 4, 8-[3-Cyano-4-(4-fluorophenoxy)phenyl]-9H-purine]	33
–	163 to 165 °C (dec.)	CN1CCN(c2ccc(-c3nc4cncnc4s3)cc2C#N)CC1 [Example 14, 2-[3-Cyano-4-(4-methyl-1-piperazinyl)phenyl]thiazolo[5,4-d]pyrimidine]	43

Structure (SMILES)	IC50 [1] [µM]	melting point	In Vivo (%) TMX-67 (0.3 mg/kg) [2] [%]
N#Cc1cc(-c2nc3cncnc3s2)ccc1Oc1ccc(O)cc1 [Example 22, 2-[3-Cyano-4-(4-hydroxyphenoxy)phenyl]thiazolo[5,4-d]pyrimidine]	0.072	> 250 °C	–
